Assay results reported in patent US6509003B2, “Reagents for the determination of cerebral regional acetylcholinesterase activity” (Daiichi Pure Chemicals Co., Ltd., priority 1997, dated 2003).
Read-outs that look alike come from different tables or passages of the source.

Assays:
[1] = target: T1, AchE (Rattus norvegicus, UniProt P37136); assay: hydrolysis of 14C-labeled compound in 20% rat brain cortex homogenate, radio TLC, with/without BW284c51; settings: for specificity for AchE in hydrolysis reaction: 14C-labeled compound, from inhibition test with BW284c51
Method: Rat brain cortex was processed into a 20% (w/v) homogenate by use of 0.9% NaCl-10 mM phosphate buffer (pH 7.4).

[2] = target: T2, central AchE (Rattus norvegicus, UniProt P37136); assay: radioactivity distribution in the rat brain by quantitative autoradiography after intravenous administration; settings: 14C-labeled 13b, male white rat, i.v.
T2 sequence (P37136 32-614): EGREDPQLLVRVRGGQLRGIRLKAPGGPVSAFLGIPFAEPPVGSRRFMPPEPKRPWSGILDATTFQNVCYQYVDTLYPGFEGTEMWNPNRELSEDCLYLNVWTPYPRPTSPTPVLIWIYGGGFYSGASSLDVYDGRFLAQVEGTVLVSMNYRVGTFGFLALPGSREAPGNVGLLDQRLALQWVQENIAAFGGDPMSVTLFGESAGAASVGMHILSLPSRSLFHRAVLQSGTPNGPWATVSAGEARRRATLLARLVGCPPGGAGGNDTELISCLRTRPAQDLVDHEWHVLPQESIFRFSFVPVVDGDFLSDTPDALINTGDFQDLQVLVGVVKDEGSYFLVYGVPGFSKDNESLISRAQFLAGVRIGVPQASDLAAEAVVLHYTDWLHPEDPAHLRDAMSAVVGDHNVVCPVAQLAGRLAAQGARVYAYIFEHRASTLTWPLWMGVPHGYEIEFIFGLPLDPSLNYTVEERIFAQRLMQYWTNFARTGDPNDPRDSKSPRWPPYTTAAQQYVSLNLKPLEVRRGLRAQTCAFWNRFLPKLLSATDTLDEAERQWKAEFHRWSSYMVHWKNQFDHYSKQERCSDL

[3] = target: T1, AchE; format: biochemical; parameters: Cerebral cortical tissues were obtained from rats, weighed and homogenized; from tissue; host or cells: rat cerebral cortex homogenate
Method: Cerebral cortical tissues were obtained from rats, weighed and homogenized (90 mg tissue/ml) in 0.1 M phosphate buffer, pH7.4. […]

[4] = target: T2, central AchE; assay: radioactivity distribution in the rat brain by dissection method after intravenous administration; format: in vivo; parameters: from tissue; host or cells: brain of living male rats (in vivo); settings: male wistar rats, i.v.
Method: After a geometrical isomer (50b) of compound No. 50 obtained in Example 8 (1) had been intravenously administered to groups of male wistar rats, radioactivity distribution in the rat brain was assayed by dissection method.

[5] = target: T2, central AchE; assay: radioactivity distribution in the rat brain by autoradiography after intravenous administration; format: in vivo; parameters: from tissue; host or cells: brain of living male rats (in vivo); settings: male white rat, i.v.; for migration to the brain: 14C-labeled, autoradiography
[6] = immediately after administration
[7] = thirty minutes or more after administration
[8] = fifteen minutes or more after administration
[9] = thirty minutes after administration

For `CC(=O)OC1CCN(C)CC1C(O)CC/C=C/I` (single isomer, unassigned) [13a], the “specificity for AchE in hydrolysis reaction” value ([1]; rat brain cortex homogenate) was 80.4%.

With `CC(=O)OC1CCN(C)CC1C(O)CC/C=C/I` (single isomer, unassigned) [13b] the “specificity for AchE in hydrolysis reaction” value ([1]; rat brain cortex homogenate) was 91.8%, the “reactivity and specificity for AchE (in words)” value ([1]; rat brain cortex homogenate) was “excellent reactivity and specificity for AchE” and the half-life ([1]; rat, 20% (w/v) brain cortex homogenate, pH 7.4, half-life of hydrolysis, 14C-labeled (N-methyl) compound, rat brain cortex homogenate, 37°C) was ~5 min. For the same compound, the “radioactivity distribution, brain cortex” value [2, 6] was “high”, the “radioactivity distribution, corpus striatum” value [2, 6] was “low” and the “accumulation of radioactivity, cerebellum” value (“accumulation … cerebellum” below) [2, 7] was “low accumulation of radioactivity”. For the same compound, the “accumulation of radioactivity, striatum” value [2, 7] was “high accumulation of radioactivity”.

For `COCOC(CC/C=C/[123I])C1CN(C)CCC1OC(C)=O` (single isomer, unassigned) [50b], the “specificity for AchE” value ([3]; 123I-labeled compound, rat cerebral cortical homogenate, 37°C, from inhibition by BW284c51) was 88.6%, the “accumulation … cerebellum” value [4, 8] was “accumulation of radioactivity was low” and the “accumulation of radioactivity, striatum” value [4, 8] was “high accumulation of radioactivity”. The “radioactivity distribution, brain cortex” value [4, 6] was “high” and the “radioactivity distribution, striatum” value [4, 6] was “low”.

For `C=CC[N+](C)(C)c1ccc(CCC(=O)CCc2ccc([N+](C)(C)CC=C)cc2)cc1.[Br-].[Br-]` [BW284c51, reference compound], the “hydrolysis on addition of BW284c51” value ([1]; hydrolysis of 14C-labeled compound No. 13 in rat brain cortex homogenate) was “considerably inhibited” and the “hydrolysis on addition of BW284c51” value ([3]; hydrolysis of 123I-labeled 50b in rat cerebral cortical homogenate) was “considerably inhibited”.

`O.[14CH3]N1CCC(C(O)/C=C/I)C(O)C1` (stereo not drawn) [compound No. 46, N-^14C-methyl-3-hydroxy-4-(l-hydroxy-3-iodo-2-propenyl)piperidine] was tested, and the “migration to the brain” value [5] was “hardly migrated to the brain”.

In the case of `CC(=O)OC1CN([14CH3])CCC1C(O)/C=C/I` (stereo not shown) [compound No. 47, N-^14C-methyl-3-acetoxy-4-(1-hydroxy-3-iodo-2-propenyl)piperidine], the “migration to the brain” value [5] is reported as “commonly migrated to the brain”, the “radioactivity distribution, brain cortex” value ([5]; 5 minutes after administration) is reported as “high” and the “radioactivity distribution, cerebellum” value ([5]; 5 minutes after administration) is reported as “low”. For the same compound, the “radioactivity distribution, corpus striatum” value ([5]; 5 minutes after administration) was “somewhat high”, the “accumulation … cerebellum” value [5, 9] was “low accumulation of radioactivity” and the “accumulation of radioactivity, corpus striatum” value [5, 9] was “high accumulation of radioactivity”.
